Assays:
[1] = Water solubility of crystal forms measured by HPLC; type: physicochemical; conditions: 25°C
Protocol: The water solubilities at 25°C of different crystal forms of Entinostat have been measured by HPLC and are set out in the following table: […]

[2] = Compression study (hydraulic press, polymorphic form after compression); type: physicochemical; conditions: about 100 mg powder compressed to 5 tonnes/cm^2, held for 1h; slight crystallinity decrease
Protocol: The compression study was performed using a Specac hydraulic press. A sample powder (approx. 100mg) is loaded into a metal die (ring shaped metal holder). A snugly fitted billet (a cylinder-shaped metal rod) is then placed into the die, on top of the powder sample. The die and billet assembly is then placed into the hydraulic press and compressed to a pressure of 5 tonnes/cm^2 and held under that pressure for 1h. The billet is then removed and the disc extracted from the die.

Water solubility [1] | polymorphic form after compression [2] | Compound
0.028 mg/mL | maintain the same polymorphic form | Nc1ccccc1NC(=O)c1ccc(CNC(=O)OCc2cccnc2)cc1 [Form B, (pyridin-3-yl)methyl 4-(2-aminophenylcarbamoyl)benzylcarbamate]
0.13 mg/mL | maintain the same polymorphic form | Nc1ccccc1NC(=O)c1ccc(CNC(=O)OCc2cccnc2)cc1 [Form D, (pyridin-3-yl)methyl 4-(2-aminophenylcarbamoyl)benzylcarbamate]
0.048 mg/mL | maintain the same polymorphic form | Nc1ccccc1NC(=O)c1ccc(CNC(=O)OCc2cccnc2)cc1 [Form A, (pyridin-3-yl)methyl 4-(2-aminophenylcarbamoyl)benzylcarbamate]

Source: patent EP3168210A1, “CRYSTALLINE FORMS OF ENTINOSTAT” (SANDOZ AG, priority 2015, dated 2017)
